Reference: patent US20070142462A1, “Method of Treating Cancer” (The University of Utah, priority 2000, published 2007)

Columns and labels:
M1619 melanoma cells = assay: MTT proliferation assay, M1619 melanoma; format: cell-based, human
Protocol: Measurement of Proliferation in Cell Cultures. Proliferation of cultured cells was quantitated using a previously reported calorimetric method based upon metabolic reduction of the soluble yellow tetrazolium dye 3-[4,5-dimethylthiazol]-2yl-2,5-diphenyl tetrazolium bromide (MTT) to its insoluble purple formazan by the action of mitochondrial succinyl dehydrogenase. […] This assay empirically distinguishes between dead and living cells. For proliferation studies, cells were seeded into 24-well uncoated plastic plates (Costar) at 15,000-50,000 cells per well and cultured with respective media and mitogens. After 24-96 hours, medium was removed, cells were washed twice with 1 ml of sterile Dulbecco's modified phosphate buffered saline without Ca^2+ or Mg^2+ (DPBS), the medium was replaced with 1 ml/well fresh medium containing 100 μg/ml MTT, and plates were incubated an additional hour. MTT-containing medium was removed, 0.5 ml dimethylsulfoxide (DMSO) was added to each well, and the absorbance of the solubilized purple formazan dye was measured at 540 nm. A total of 4-6 wells was studied at each treatment condition. Preliminary studies were performed with 50-200 μg/ml MTT incubated for 15 min to 3 hours to determine the optimum concentration and incubation time at which the rate of conversion was linear and proportional to the number of cells present.
(§1) Cell Culture Treatments. The effect of antioxidant treatments on proliferation of malignant cell lines was studied in cultures stimulated with 10% FBS. Cell numbers were quantitated by the MTT assay 24-72 hours later. In some experiments, antioxidants were added immediately after cells were plated. In other experiments, cells were plated and allowed to grow for 24 hours before fresh media with antioxidants was added, and cell numbers were studied by the MTT assay 48 hours later.
A. M1619 melanoma cells stimulated with 10% fetal bovine serum (FBS) were plated at a density of 50,000 cells per well and antioxidants were added to wells at the indicated concentrations (mM or U/ml). After 48 hours, proliferation was quantitated by assessing the cell number-dependent reduction of the soluble yellow tetrazolium dye 3-[4,5-dimethylthiazol]-2yl-2,5-diphenyl tetrazolium bromide (MTT) to its insoluble formazan, measured as the absorbance at 540 nm (A540). The antioxidants tested included no antioxidant (control, i.e., FBS alone), 1000 U/ml SOD, 20 mM NAC, 500 U/ml, 1000 U/ml, and 3000 U/ml of catalase, and boiled […] catalase.
B. In a separate experiment, 2 μl/well of DMSO (served as control), 5 μM, 10 μM, and 25 μM Ebselen were tested on M1619 melanoma cells as described above, except that the cells were cultured for 72 hours before proliferation was measured.
C. 3000 U/ml Catalase, 2 μl/well DMSO, 25 μM Ebselen, and 50 μM Ebselen were tested as described above except that the compounds were added 24 hours after M1619 cells were plated. After the addition of antioxidants, the cells were incubated for an additional 48 hours and cell proliferation was quantitated. […]

p65 component of NF-κB = assay: Immunohistochemical localization of p65 in M1619 cells; format: cell-based, human; details: 24 hours, catalase 3,000 U/ml, apocynin 150 μg/ml, dicumarol 250 μM
Protocol: The effect of antioxidants on nuclear activation of NF-κB was studied by incubating near confluent (70%) cell cultures with antioxidant treatments for 1-48 hours. Nuclear protein was harvested, and EMSAs were performed using DNA consensus binding sequences, or nuclear translocation of the p65 component of NF-κB was studied by immunoperoxidase staining, as outlined below.
Immunohistochemical Localization of NF-κB. Cells grown on sterile coverslips and treated with catalase 3,000 U/ml, apocynin 150 μg/ml, or DPBS or DMSO vehicles for 24 h were fixed for 20 min on ice with 4% paraformaldehyde in DPBS with protease inhibitors, PI [Sigma protease inhibitor cocktail, 10 μl/ml, containing 4-(2-aminoethyl)benzensulfonyl fluoride (AEBSF), pepstatin A, trans-epoxysuccinyl-L-leucylamindo-(guanidino)butane (E-64), bestatin, leupeptin and aprotinin]. Cells were permeabilized by treating for 2 min with 0.1% NP-40 in DPBS/PI, washed once with cold DPBS and fixed as before for 10 min. Coverslips were incubated in 3% hydrogen peroxide for 30 min to suppress any remaining peroxidase, and washed three times in cold DPBS. The permeabilized and fixed cells were blocked for 2 hours with 2% BSA in DPBS on ice and incubated overnight at 4° C. with 1 μg/ml of anti-p65 antibody (Santa Cruz) diluted in 0.1% BSA/DPBS. Unbound anti-p65 was washed away with 2% BSA/DPBS and bound antibody was stained by incubation with biotinylated goat anti-rabbit immunoglobulin diluted 1:50 in 0.1% BSA/DPBS for 45 min on ice. Excess secondary antibody was washed away by 3 washes with 2% BSA/DPBS on ice. After washing, the cells were incubated with a streptavidin-biotin-peroxidase complex at room temperature for 1 hr, washed again, and incubated in 0.03% wt/vol 3-3′diaminobenzidine with 0.003% vol/vol hydrogen peroxide until a brown reaction product could be seen. Cells were then counterstained with eosin and mounted on glass slides before viewing under light microscopy. […]

M1619 cells = assay: Cytotoxicity by trypan blue; format: cell-based; details: catalase treatment; 24 hours
Protocol: Measurement of Cytotoxicity and Apoptosis. To assess for cytotoxicity, near confluent cells cultured in 24 well plates were exposed to antioxidants or withdrawn from serum for 24 hours. Medium was removed, and replaced with Dulbecco=s phosphate buffered saline (DPBS) containing 0.1% trypan blue. […] To assess for apoptosis, cells grown on glass slides were treated with antioxidants for 24 hours. Apoptosis was studied by terminal deoxynucleotidyl transferase (TdT) dependent 3′BOH fluorescein end-labeling of DNA fragments, using a Fluorescein-FragEL™ DNA fragmentation detection kit (Oncogene Research Products, Cambridge, Mass.). DNase-treated fixed cells were used as a positive control.

[1] = test system: Adeno-squamous lung carcinoma NCI-H596 cells; assay: MTT proliferation assay, NCI-H596 lung carcinoma; format: cell-based, human; details: Catalase 3000 U/ml; 10% FBS; 48 hours; mean±SE vs control
Protocol: Measurement of Proliferation in Cell Cultures. […] This assay empirically distinguishes between dead and living cells.
as §1
Cells stimulated with 10% FBS were plated at a density of 50,000 cells per well. DMSO and antioxidants were added to cell wells at the indicated concentrations. […] Each value represents a mean of at least 4 experiments.

## Catalase
M1619 melanoma cells; 10% FBS, agents added at plating, 48 hours (ebselen 72 hours)
  Proliferation of M1619 melanoma cells (MTT, A540): reduced proliferation
M1619 melanoma cells; catalase 3000 U/ml, Ebselen 25 and 50 μM, further 48 hours
  Proliferation of M1619 melanoma cells, agents added 24 hours after plating: antiproliferative
p65 component of NF-κB
  anti-p65 staining in nuclei (nuclear translocation of NF-κB): little staining in nuclei
M1619 cells
  trypan blue dye exclusion: significantly increased
[1]
  Percent Growth Inhibition: 69 ± 4
